Results: ChEMBL document CHEMBL5614400, “Emerging therapeutics: The imidazo[1,2-b]pyridazine scaffold as a novel drug candidate for eumycetoma, a neglected tropical disease” (Eur J Med Chem, 2024)
Calls of active or inactive are those of the source. No cut-off for these calls is given here.

Legend:
Format in all cases: functional, organism-based
Madurella mycetomatis [1] = test: Antifungal activity against Madurella mycetomatis MM55 at 100 uM by XTT assay
Madurella mycetomatis [2] = test: Antifungal activity against Madurella mycetomatis MM55 at 25 uM by XTT assay
Madurella mycetomatis [3] = test: Antifungal activity against Madurella mycetomatis MM55 by XTT assay; conditions: Madurella mycetomatis, MM55

| SMILES | Activity (Madurella mycetomatis [1]) | Activity (Madurella mycetomatis [2]) | IC50 (Madurella mycetomatis [3]) [µM] |
| --- | --- | --- | --- |
| CN1CCN(c2cc(-c3cccnc3)c3nc(-c4ccc(F)cc4)cn3n2)CC1 | Active | Active | > 16 |
| CN1CCN(c2cc(-c3cccnc3)c3nc(-c4cccc(F)c4)cn3n2)CC1 | Active | Active | 11.7 |
| CN1CCN(c2cc(-c3cccnc3)c3nc(-c4ccccc4F)cn3n2)CC1 | Active | Active | 11.5 |
